Assay results as given in patent publication US11826369B2, “Targeting the TLK1/NEK1 axis in prostate cancer” (Board of Supervisors of Louisiana State University and …, priority 2019, dated 2023).
Entries after “also recorded” stand apart in the source; their conditions may differ.

Columns and labels:
[1] = test system: C. elegans; assay: Behavioral assays in C. elegans; assay type: in vivo
Protocol: FIGS. 19A-19C show behavioral assays in C. elegans. In FIG. 15A, for the pharyngeal pumping assay, wild-type animals (N2 strain) were transferred to plates with diluted DMSO (Control) or drug (J-54 or trifluoperazine) at 160 μM final concentration for 90 min before quantifying pharyngeal pumping see SI methods). The inventors counted visible movement of the grinder (pharyngeal contractions) for 30 sec to obtain the pumping rate (N=45). […] Inhibition of pharyngeal pumping by trifluoperazine (TFP), a typical PTH antipsychotic, is attributed to its known activity as a dopamine and calmodulin antagonist. In FIG. 15B. foraging, regulated by serotonin and dopamine, was studied in wild-type animals evaluated in the presence of DMSO (Control) or J54 at a high dose of 160 μM vs. TFP at 40 μM. The number of omega turns (head touches body) and reversals were then counted over the next 3 min to quantify search behavior for each group (N=13 per group). […] Dopamine produces immobility in C. elegans after 2-3 hr of exposure. Antipsychotic drugs, such as haloperidol, that potently block D2 dopamine receptors largely counteract the effects of dopamine, i.e., more animals continue to move on plates that include dopamine plus drug. Wild-type animals were incubated on 60 agar plates with bacteria and diluted DMSO (Control) or J54 or haloperidol at 160 μM final concentrations. After 1 hr on these plates, they were transferred to 60 mm agar plates with bacteria that also contained dopamine (final concentration 25 mM) plus diluted DMSO (Control) or else J-54 or haloperidol at final concentrations of 160 μM. After 3 hr on the dopamine plates, the inventors examined movement and counted animals as moving if they traversed half their body length in either the forward or backward direction during a 5-sec observation period. The inventors then calculated the percentage of animals moving and repeated this experiment three times to confirm the effects of drug.
We then did a general assessment of mice following injections of J54. […]

[2] = General assessment of mice following injections; assay type: in vivo
Excerpt: We then did a general assessment of mice following injections of J54. […] To get a better assessment of the possible behavioral effects of J54, the inventors used C. elegans that has a simple but complete nervous system and has been well characterized for its responses to anti-psychotic drugs, including actions at serotonin or dopamine receptors.

[3] = biological target: T1, recombinant TLK1B (Homo sapiens, UniProt Q9UKI8); assay: TLK1B kinase assay with Nek1 peptide (ADP Hunter), inhibitor screening; assay type: biochemical; set-up: The full-length, 65 KDa recombinant human TLK1B (hTLK1B) for the in-vitro experiments was expressed and purified from bacteria; made in house; host or cells: bacteria
T1 sequence (Q9UKI8 1-549 isoform Q9UKI8-3): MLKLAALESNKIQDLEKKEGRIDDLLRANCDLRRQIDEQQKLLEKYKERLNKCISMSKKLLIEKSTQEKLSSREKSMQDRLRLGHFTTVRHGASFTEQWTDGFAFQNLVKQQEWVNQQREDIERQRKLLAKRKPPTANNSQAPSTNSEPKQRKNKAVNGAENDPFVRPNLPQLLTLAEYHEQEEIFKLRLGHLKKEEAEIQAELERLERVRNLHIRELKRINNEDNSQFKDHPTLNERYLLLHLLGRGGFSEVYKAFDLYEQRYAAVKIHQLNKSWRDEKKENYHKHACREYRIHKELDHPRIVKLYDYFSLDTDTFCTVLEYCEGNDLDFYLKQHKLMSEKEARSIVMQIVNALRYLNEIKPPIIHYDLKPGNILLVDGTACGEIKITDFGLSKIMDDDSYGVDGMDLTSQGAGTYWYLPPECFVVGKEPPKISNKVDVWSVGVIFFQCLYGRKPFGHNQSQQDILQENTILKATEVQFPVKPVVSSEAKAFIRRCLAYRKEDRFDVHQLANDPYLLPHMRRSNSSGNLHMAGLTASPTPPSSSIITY
Protocol: FIG. 8A-FIG. 25 show further experiments into the present invention, with FIGS. 8A-8G show kinase assays, inhibitor screening, IC50 evaluation and competitive assays. Recombinant TLK1B purified to homogeneity (FIG. 8A) is active in kinase assays (FIG. 8B) and phosphorylates a specific Nek1 peptide (FIG. 8C). […] All experiments were conducted in triplicates. The DiscoverRx ADP Hunter™ (Eurofins DiscoverRx, Fremont, CA, US) Kit was used to measure the generation of ADP resulting from kinase phosphorylation of substrate.
Chemical synthesis of J54 and several different Phenothiazines and Protein expression and purification: Details were explained in section B of supplementary of material and methods. The full-length, 65 KDa recombinant human TLK1B (hTLK1B) for the in-vitro experiments was expressed and purified from bacteria as described earlier.
Results: A new PTH potent inhibitor of TLK1B. A few PTH antipsychotics were identified in a screen the inventors conducted from a compounds library as good inhibitors of TLK1. To find additional inhibitors, recombinant TLK1B was purified (FIG. 8A). The enzymatic activity was determined using the ADP-Hunter reagents and a Nek1 peptide containing the T141 target site. […] Several structurally similar compounds were synthesized as described in the Appendix (and see NMR and MS data FIGS. 10 and 11) and tested at 20 μM (FIGS. 8E and 8F). […] The inventors continued the inventors' characterization of J54.

[4] = test system: recombinant human dopamine receptors (D1 and D3); assay: Competitive radioassay with 7-Hydroxy DPAT, R-(+)-[3H] tracer; assay type: binding; conditions: 100 nM, compared to THD
[5] = test system: RWPE1 (normal prostate) cell line; assay: Cell proliferation assay, normal prostate cells; assay type: cell-based, human
Protocol: All experiments were conducted in triplicates. […] The cells were grown for 2-3 weeks and stained with crystal violet. All experiments were conducted in triplicates. […] The cell lines used were human “normal” RWPE-1, LNCaP, (LNCaP-derivative) C4-2B, 22RV1, DU14, PC3, and mouse TRAMP-C2. FIGS. 11C and 11D show cell proliferation of LNCaP and TRAMP-C2 were determined during a 3 days incubation with different concentration of J54 (MTS assay). All experiments were conducted in triplicates. […] Representative analysis of two independent experiments are shown.
J54 in combination with anti-androgen (Bicalutamide) induces apoptosis in AS PCa cells. […] The inventors thus tested the same panel of cells in androgen containing medium (FBS) by proliferation assays. […] Note that VCaP cells were 60% inhibited by J54 alone, consistent with their elevated replication stress-driven DDR and checkpoint activation (FIG. 12E), which when suppressed with J54 could lead to apoptosis. Clonogenic assays are unable to distinguish the effects of a DNA damaging agent, which can result in either an impaired or delayed resumption of growth (cell division) or loss of viability due to increased killing of the initial population. The inventors thus measured in LNCaP and TRAMP-C2 cells the early change in cell number (MTT assay) over 72 h with J54 alone.

c1ccc2c(c1)Sc1ccccc1N2CCN1CCOCC1 [J54, 4-(2-(10H-phenothiazin-10-yl)ethyl) morpholine]
pharyngeal pumping rate ([1]; 160 μM, 90 min): reduced the pumping rate but to a lesser extent than a much lower concentration of TFP
toxicity to worms ([1]; prolonged exposure): not toxic to worms even after prolonged exposure
behavioral effects attributable to DR2 activity ([1]; three studies): much weaker behavioral effects
toxicity ([2]; incl. gross inspection of organs at necropsy): no toxicity
behavioral changes ([2]; mouse, in vivo): no behavioral changes
body weight ([2]; mouse, in vivo): no decrease in body weight
IC50 ([3]; new inhibitor screening assay): 12.6 µM
inhibition of TLK1B compared with standard ([3]; tested at 20 μM): more inhibitory than Staurosporin
antagonism of dopamine receptors [4]: very weak antagonist
sensitivity of normal cells [5]: insensitive; also recorded: non-toxic to normal cells
